Source: PubChem BioAssay (NCI)
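Interpolation was linear, between the two tested concentrations surrounding the appropriate level; five concentrations were tested over 48 hours in 96-well plates. Definition used: TGI = concentration required for complete inhibition of growth.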

What was measured:
Assay in all cases: growth of human tumour cells (NCI), 48 h
[1] = system: SNB-19 CNS
[2] = system: SK-MEL-28 melanoma
[3] = system: ACHN renal
[4] = system: LOX IMVI melanoma
[5] = system: RXF 393 renal
[6] = system: OVCAR-3 ovarian
[7] = system: HCT-116 colon
[8] = system: UO-31 renal
[9] = system: SK-OV-3 ovarian
[10] = system: HL-60(TB) leukemia
[11] = system: U251 CNS
[12] = system: NCI-H522 lung
[13] = system: HCT-15 colon
[14] = system: OVCAR-4 ovarian
[15] = system: OVCAR-5 ovarian
[16] = system: OVCAR-8 ovarian
[17] = system: HOP-62 NSCLC
[18] = system: TK-10 renal
[19] = system: MOLT-4 leukemia
[20] = system: KM12 colon
[21] = system: SR leukemia
[22] = system: DU-145 prostate
[23] = system: HOP-92 NSCLC
[24] = system: NCI-H226 lung
[25] = system: 786-0 renal
[26] = system: NCI-H460 lung
[27] = system: RPMI-8226 leukemia
[28] = system: SK-MEL-5 melanoma
[29] = system: PC-3 prostate
[30] = system: SN12C renal
[31] = system: M14 melanoma
[32] = system: SW-620 colon
[33] = system: HS 578T breast
[34] = system: HCC-2998 colon
[35] = system: SF-268 CNS
[36] = system: SF-539 CNS
[37] = system: MALME-3M melanoma
[38] = system: T-47D breast
[39] = system: BT-549 breast
[40] = system: NCI-H23 lung
[41] = system: MCF7 breast
[42] = system: CCRF-CEM leukemia
[43] = system: MDA-N
[44] = system: IGROV1 ovarian
[45] = system: HT29 colon
[46] = system: MDA-MB-231 breast
[47] = system: COLO 205 colon
[48] = system: UACC-62 melanoma
[49] = system: SK-MEL-2 melanoma
[50] = system: SF-295 CNS
[51] = system: CAKI-1 renal
[52] = system: MDA-MB-435
[53] = system: SNB-75 CNS
[54] = system: NCI/ADR-RES ovarian
[55] = system: A498 renal
[56] = system: K-562 leukemia
[57] = system: A549 NSCLC
[58] = system: UACC-257 melanoma
[59] = system: EKVX NSCLC

## c1ccc(-c2cc3nc4ccccc4nc3cc(-c3ccccc3)[nH][nH]2)cc1
[1]
  TGI: > 100 µM
[2]
  TGI: > 100 µM
[3]
  TGI: 77.9 µM
[4]
  TGI: > 100 µM
[5]
  TGI: > 100 µM
[6]
  TGI: 64.7 µM
[7]
  TGI: > 100 µM
[8]
  TGI: > 100 µM
[9]
  TGI: 39.5 µM
[10]
  TGI: 53.5 µM
[11]
  TGI: > 100 µM
[12]
  TGI: > 100 µM
[13]
  TGI: > 100 µM
[14]
  TGI: > 100 µM
[15]
  TGI: > 100 µM
[16]
  TGI: > 100 µM
[17]
  TGI: 66.9 µM
[18]
  TGI: 51.8 µM
[19]
  TGI: > 100 µM
[20]
  TGI: > 100 µM
[21]
  TGI: > 100 µM
[22]
  TGI: > 100 µM
[23]
  TGI: > 100 µM
[24]
  TGI: > 100 µM
[25]
  TGI: > 100 µM
[26]
  TGI: > 100 µM
[27]
  TGI: > 100 µM
[28]
  TGI: > 100 µM
[29]
  TGI: > 100 µM
[30]
  TGI: > 100 µM
[31]
  TGI: > 100 µM
[32]
  TGI: > 100 µM
[33]
  TGI: > 100 µM
[34]
  TGI: > 100 µM
[35]
  TGI: > 100 µM
[36]
  TGI: > 100 µM
[37]
  TGI: > 100 µM
[38]
  TGI: > 100 µM
[39]
  TGI: > 100 µM
[40]
  TGI: > 100 µM
[41]
  TGI: > 100 µM
[42]
  TGI: > 100 µM
[43]
  TGI: > 100 µM
[44]
  TGI: > 100 µM
[45]
  TGI: > 100 µM
[46]
  TGI: > 100 µM
[47]
  TGI: > 100 µM
[48]
  TGI: > 100 µM
[49]
  TGI: > 100 µM
[50]
  TGI: 88.7 µM
[51]
  TGI: > 100 µM
[52]
  TGI: > 100 µM
[53]
  TGI: 99.1 µM
[54]
  TGI: > 100 µM
[55]
  TGI: 55.7 µM
[56]
  TGI: > 100 µM
[57]
  TGI: > 100 µM
[58]
  TGI: > 100 µM
[59]
  TGI: > 100 µM

## OC1C2CCCCN2C[C@@H](O)[C@H]1O (stereo partly drawn)
[1]
  TGI: > 100 µM
[2]
  TGI: > 100 µM
[3]
  TGI: > 100 µM
[4]
  TGI: > 100 µM
[5]
  TGI: > 100 µM
[6]
  TGI: > 100 µM
[7]
  TGI: > 100 µM
[8]
  TGI: > 100 µM
[9]
  TGI: > 100 µM
[10]
  TGI: > 100 µM
[11]
  TGI: > 100 µM
[12]
  TGI: > 100 µM
[13]
  TGI: > 100 µM
[14]
  TGI: > 100 µM
[15]
  TGI: > 100 µM
[16]
  TGI: > 100 µM
[17]
  TGI: > 100 µM
[18]
  TGI: > 100 µM
[19]
  TGI: > 100 µM
[20]
  TGI: > 100 µM
[21]
  TGI: > 100 µM
[22]
  TGI: > 100 µM
[23]
  TGI: > 100 µM
[24]
  TGI: > 100 µM
[25]
  TGI: > 100 µM
[26]
  TGI: > 100 µM
[27]
  TGI: > 100 µM
[28]
  TGI: > 100 µM
[29]
  TGI: > 100 µM
[30]
  TGI: > 100 µM
[31]
  TGI: > 100 µM
[32]
  TGI: > 100 µM
[33]
  TGI: > 100 µM
[34]
  TGI: > 100 µM
[35]
  TGI: > 100 µM
[36]
  TGI: > 100 µM
[37]
  TGI: > 100 µM
[38]
  TGI: > 100 µM
[39]
  TGI: > 100 µM
[40]
  TGI: > 100 µM
[41]
  TGI: > 100 µM
[42]
  TGI: > 100 µM
[43]
  TGI: > 100 µM
[44]
  TGI: > 100 µM
[45]
  TGI: > 100 µM
[46]
  TGI: > 100 µM
[47]
  TGI: > 100 µM
[48]
  TGI: > 100 µM
[49]
  TGI: > 100 µM
[50]
  TGI: > 100 µM
[51]
  TGI: > 100 µM
[52]
  TGI: > 100 µM
[53]
  TGI: > 100 µM
[54]
  TGI: > 100 µM
[55]
  TGI: > 100 µM
[56]
  TGI: > 100 µM
[57]
  TGI: > 100 µM
[58]
  TGI: > 100 µM
[59]
  TGI: > 100 µM
